Tested on: T1, special icariin glycosidase
T1 construct: gene icariin 7-O-glucosidase; native enzyme purified from culture supernatant (methanol precipitation, DEAE-cellulose DE-52); about 75 kDa by SDS-PAGE
Assay: Lineweaver-Burk; HPLC and TLC of products and substrate
Format: biochemical, Aspergillus sp. y48
Conditions: 45 °C, 9 h reaction, 0.4-2.0 mmol/L icariin; purified free enzyme

Work on `COc1ccc(-c2oc3c(CC=C(C)C)c(O[C@@H]4O[C@H](CO)[C@@H](O)[C@H](O)[C@H]4O)cc(O)c3c(=O)c2O[C@@H]2O[C@@H](C)[C@H](O)[C@@H](O)[C@H]2O)cc1` [icariin] yielded a Km of 3.55 mM.

Reference: publication PMC11729362, “Icariside II Preparation from Icariin Separated from Epimedium Herbal Extract Powder by a Special Icariin Glycosidase” (Journal of Microbiology and Biotechnology, 2024)
